Data from patent US20060135574A1, “Novel uses for estrogen beta agonists” (Wyeth, priority 2004, published 2006).

Assays:
[1] = test system: male Long Evans rats; experiment: Novel Object Recognition; format: in vivo; conditions: 0.5 mg/kg injected 30 minutes prior to T1; Trial 2 48 hours after Day 2
Description: (§1) Novel Object Recognition is impaired in several disorders of memory including Alzheimer's disease, schizophrenia, mild cognitive impairment (MCI), stroke, amongst others. In rodents, […] is used extensively to examine the effects of drugs on this form of memory. An ERβ agonist, 7-bromo-2-(4-hydroxyphenyl)-1,3-benzoxazol-5-ol, was tested on this form of memory. In the habituation stage (Day 1), the rats, male Long Evans are habituated for 10 minutes each to an arena that contains 2 identical objects (YY). On trial 1 (Day 2), the arena is set up with a different set of identical objects (e.g., BB) and the animals are allowed to spend 5 minutes sniffing each objects. Thirty (30) minutes prior to T1, animals were injected with 7-bromo-2-(4-hydroxyphenyl)-1,3-benzoxazol-5-ol.

[2] = test system: ovariectomized female rats; experiment: Working memory, radial arm maze win-shift task; format: in vivo; conditions: OVX rats; estradiol benzoate 0.02 mg/kg s.c. in oil for 2 days; ERβ and ERα agonists 10 mg/kg for 6 days
Source text: Cognitive symptoms of memory, including those from Alzheimer's disease and stroke, can be evaluated by such models as the Fear Conditioning Paradigm (Gould T J et al., 2002 Behav Pharmacol. 13(4):287-94; Hamm A O et al., 2003 Brain 126(Pt 2):267-75) and Radial Arm Test (Aggleton J P et al., 1996 Behav Brain Res. 19(2):133-46), while spatial reference memory and learning can be evaluated in the Morris watermaze (Bontempi B et al., 1996 Eur J Neurosci. 8(11):2348-60). Additionally, memory and hippocampal hypo-functioning can be assessed by measuring the restoration of synaptic plasticity in ovariectomized (OVX) female rats. (Day and Good, 2005 Jan., Neurobiol Learn Mem., 83(1): 13-21). Further, changes in attention function because of schizophrenia can be examined by the five (5) Choice Serial Reaction Time Test (5CSRT) (see Muir J L, et al., 1995 Psychopharmacology (Berl) 118(1): 82-92; Robbins et al., 1998 Ann N Y Acad Sci. 846:222-37).
Female rats were habituated to a water deprivation schedule and to the radial maze for at least one week prior to acquisition. The rats were ovariectomized six to eight (6-8) weeks before testing. Subjects were then treated with either estradiol benzoate (0.02 mg/kg), the ERfl agonist, 7-bromo-2-(4-hydroxyphenyl)-1,3-benzoxazol-5-ol, or an ERα agonist. […]

[3] = test system: aged rats (15 months); experiment: Mild cognitive impairment model: CREB levels and Novel Object Recognition in aged rats; format: in vivo; conditions: single injection 1 mg/kg 30 minutes prior to testing, compared to young 3 month old rats
Description: as §1
cAMP-response-element-binding protein (CREB) is expressed in all cells in the brain and is a member of a family of proteins that function as transcription factors. […] Aged animals show marked decreases in CREB activation and memory; and this decline in cognition in aged rats is a useful model of mild cognitive impairment seen in humans. As such, an ERβ agonist, 7-bromo-2-(4-hydroxyphenyl)-1,3-benzoxazol-5-ol, was tested on this form of recognition memory. […]

[4] = test system: Male C56/BL6 mice; experiment: Apomorphine induced climbing (AIC) in pretreated male mice; format: in vivo; conditions: for attenuation / blockade of apomorphine induced climbing (AIC): male mice pretreated for 3 consecutive days, estradiol benzoate 0.1, 0.3 and 1 mg/kg, at 24 and 48 hours
Source text: Patients can be evaluated for cognitive diseases or disorders by any of the tests known in the art. Preclinically, animals can be evaluated for blockade/attenuation of symptoms associated with schizophrenia. Positive symptoms in animal models of schizophrenia can be evaluated by measuring changes in the overall level of activity of dopamine (DA) activity with concomitant parallel changes in locomotor activity (Depoortere R et al., 2003 Neuropsychopharmacology 28(11):1889-902), D-amphetamine (AMPH) and phencyclidine (PCP) via induction of model psychosis or locomotor hyperactivity (Freed W J et al., 1984 Neuropharmacology 23(2A):175-81; Sams-Dodd, F. 1998 Neuropsychopharmacology 19(1): 18-25). For example, Depoortere et al. have described tests for evaluating locomotor activity, catalepsy, climbing and stereotypy, which relate to positive symptomology and side effect profile, by characterizing compounds with typical and atypical antipsychotic efficacy (2003). Attenuation in apomorphine-induced climbing, stereotypy and catalepsy (AIC) can be evaluated as described by Fung Y K et al. 1986 Pharmacol Biochem Behav. 1986 24(1):139-41 and Fung, et aL, 1987 Steroids 49(4-5):287-94. Additionally, negative symptoms of schizophrenia can be evaluated by measuring social interaction under the influence of NMDA antagonists such as PCP (Sams-Dodd F 1998).
Male C56/BL6 mice were pretreated with estradiol benzoate 0.1, 0.3 and 1 mg/kg and an estrogen beta agonist, 7-bromo-2-(4-hydroxyphenyl)-1,3-benzoxazol-5-ol for three (3) consecutive days, and then evaluated for locomotor activity, catalepsy, AIC and stereotypy. Estradiol benzoate attenuated AIC at 24 and 48 hours (approximately 55%), while the estrogen beta agonist, 7-bromo-2-(4-hydroxyphenyl)-1,3-benzoxazol-5-ol, outperformed estradiol benzoate by inducing a sixty percent (60%) blockade of AIC in the male mice.

[5] = test system: young men diagnosed with severe schizophrenia; conditions: 33 young men, small doses for two weeks; cited from earlier work
[6] = test system: hippocampal CA1 region; experiment: Synaptic plasticity (LTD/LTP) in the hippocampal CA1 region after ovariectomy; format: in vivo, rats; conditions: chronic replacement, injection every 48 hours over 5 weeks
Source text: In Experiment 1, ovariectomy carried out either five (5) days or five (5) weeks before testing impaired the induction of long-term depression (LTD), but not long-term potentiation (LTP). […] The findings are discussed with reference to (1) the contribution of Ca^2+ regulated synaptic signaling pathways in the CA1 region to estradiol modulation of LTP and LTD and (2) the potential functional significance of ovariectomy-induced changes in synaptic plasticity for learning and memory processes. […] Restoration of impaired synaptic plasticity of ovariectomized female rats following estrogen treatment can be evaluated by the protocol used by Day and Good, January 2005, Neurobiol Learn Mem., 83(1): 13-21.

[7] = test system: male mice; conditions: cited from earlier work
[8] = test system: βERKO female mice; experiment: Phencyclidine (PCP) induced locomotor activity (LMA) during PCP withdrawal; format: in vivo; conditions: 0.3 mg/kg on day 5, sub-effective PCP dose after 4 day withdrawal
Description: Animals were treated for five (5) days with PCP. Following this period, the animals were given a 4 day withdrawal period. One group received 0.3mg/kg estradiol benzoate on day 5. […] Thus, the classic estrogen agonist, estradiol benzoate, effectively blocks the effects of PCP on LMA, with other ERβ agonists likely to behave similarly.

Oc1ccc(-c2nc3cc(O)cc(Br)c3o2)cc1 [7-bromo-2-(4-hydroxyphenyl)-1,3-benzoxazol-5-ol]
time investigating the novel object versus the familiar object in Trial 2 [1]: significantly improved
working memory in the radial arm maze [2]: improved working memory
CREB levels [3]: restored the CREB levels
memory in the NOR method [3]: increased memory
blockade of AIC compared with estrogen treatment (FIG. 1) ([4]; 3 days of treatment): more profound blockade of AIC
attenuation / blockade of apomorphine induced climbing (AIC) [4]: 60%

C[C@]12CC[C@@H]3c4ccc(O)cc4CC[C@H]3[C@@H]1CC[C@@H]2O [17β-estradiol]
hallucinations and delusions [5]: significant decline in hallucinations and delusions
induction of LTP [6]: no effect on the induction of LTP
magnitude of paired-pulse induced LTD in the CA1 region [6]: enhanced the magnitude of paired-pulse induced LTD

C[C@]12CC[C@@H]3c4ccc(OC(=O)c5ccccc5)cc4CC[C@H]3[C@@H]1CC[C@@H]2O [estradiol benzoate]
effect on apomorphine induced climbing [7]: attenuate apomorphine induced climbing
working memory in the radial arm maze [2]: improved working memory
effect on PCP induced LMA [8]: successfully blocked the effect of PCP induced LMA
attenuation / blockade of apomorphine induced climbing (AIC) [4]: approximately 55%
